One assay relates to DD2R. More on the design: method as in PMID 12391323. Particulars: cited from earlier work; for Antagonist effect at invertebrate D2-like receptor DD2R at high concentration: 10 µM.
For the next assay, the system named is CeDOP2L. Also on record: method as in PMID 12887685. Conditions: cited from earlier work; for Antagonist effect at invertebrate D2-like receptor CeDOP2L at high concentration: 10 µM.
Another assay has as its system CeDOP2S. More on the design: method as in PMID 12887685. Particulars: cited from earlier work; for Antagonist effect at invertebrate D2-like receptor CeDOP2S at high concentration: 10 µM.
Assay [1] concerns the target T1, AmphiAmR11 (Branchiostoma floridae, UniProt A0PF35). Briefly: Block of tyramine-induced inhibition of forskolin-stimulated cAMP levels in AmphiAmR11-expressing CHO-K1 cells. In kind it is cell-based. Conditions: 30 nM tyramine; for Block of tyramine-induced inhibition of forskolin-stimulated cAMP levels: 10 µM forskolin. On the technique in general: cAMP levels reflect the balance of adenylyl cyclase and phosphodiesterase activity.

Assay [2] has as its target T1, AmphiAmR11. Put plainly: Block of dopamine-induced ERK1/2 activation in AmphiAmR11-expressing CHO-K1 cells by antagonists. Format: cell-based. Particulars: 1 µM antagonist, 10 nM dopamine, 5 min.
Assay [3] concerns the target T1, AmphiAmR11. Put plainly: ERK1/2 phosphorylation in AmphiAmR11-expressing CHO-K1 cells (Western blotting). Particulars: for Effect of antagonist on ERK1/2 phosphorylation in the absence of dopamine: 1 μM antagonist. Format: cell-based.
In assay [4] the target is T1, AmphiAmR11. Put plainly: Inhibition of forskolin-stimulated cAMP levels in AmphiAmR11-expressing CHO-K1 cells (agonist mode). Format: cell-based. Particulars: for Decrease of forskolin-stimulated cAMP levels by antagonist in the absence of agonist: 1 μM antagonist; for Agonist type at AmphiAmR11 (full or partial): cAMP assay; for Inhibition of forskolin-stimulated cAMP levels (maximal): concentration-response curves, absence of other agonist.
Protocol: CHO-K1 cells were maintained in Ham’s F-12 nutrient media (Invitrogen Life Sciences) supplemented with 10% charcoal-stripped foetal bovine serum (CS-FBS) (Hyclone, Cramlington, UK), 50 U/μg penicillin/streptomycin and 4 mM L-glutamine (Invitrogen Life Sciences) in 5% CO2 at 37°C. Stably transfected cell lines were generated by the transfection of CHO-K1 cells using Lipofectamine (Invitrogen Life Sciences) as described previously [8, 9].
cAMP levels in stably transfected CHO-K1 cells were determined as described previously [8, 9, 21], except 100 µM isobutylmethylxanthine (IBMX) was used. cAMP levels are represented as a percentage of basal samples unless otherwise stated. Student’s T-test (two-tailed and unpaired) was used to test for significance. Unless otherwise stated, all data are shown as mean ± SEM. Each data point plotted was the mean of data obtained from at least three experiments. Within each experiment three separate replicate wells were analysed for each condition and the cAMP assays on each of the wells was carried out in duplicate.
Forskolin was used both to increase basal cAMP levels to make it easier to detect increases and decreases in cAMP levels in the same experiments and also to potentiate responses to agonists to more accurately determine their threshold effects [see 22]. A non-saturating 10 µM concentration of forskolin was used.
Figure 1 Effect of biogenic amines and synthetic agonists on forskolin-stimulated cAMP levels in AmphiAmR11-expressing CHO-K1 cells. Cells were pre-incubated with 100 µM IBMX for 20 min, followed by incubation with 10 µM forskolin and 100 µM IBMX in the presence of increasing concentrations of various biogenic amines (A) or synthetic agonists (B) for a further 20 min. Data are expressed as the mean ± SEM. n ≥ 3.

In the next assay the test system is AmphiAmR4. Also on record: method as in PMID 23183848. Conditions: cited from earlier work.
Assay [5] has as its target T1, AmphiAmR11. Put plainly: Calcium mobilisation in AmphiAmR11-expressing CHO-K1 cells (Fura-2, percentage of responding cells per field of view). Format: cell-based. On the procedure: Stably transfected CHO-K1 cells were assayed for changes in intracellular calcium levels using an Olympus Cell^R imaging system and the fluorescent indicator Fura-2, as described previously, with modifications described by Bayliss et al.. At 1 minute into the experiment, a buffer control was added and at 2 minutes into the experiment, the specified concentration of agonist was added. A single coverslip of cells was used per concentration of agonist and the percentage of cells that responded per field of view was calculated. The results from each coverslip gave an n of 1 and each agonist concentration was repeated at least three times on different days.
Figure 6 Effect of biogenic amines and calcium pathway inhibitors on calcium mobilisation in AmphiAmR11-expressing CHO-K1 cells. AmphiAmR11-expressing cells were exposed to increasing concentrations (A) or 10 nM (B) of biogenic amines for 3 minutes and the number of responding cells per field of view were calculated. Data are expressed as the mean ± SEM. n ≥ 3. FOV, field of view; DA, dopamine; TA, tyramine; NA, noradrenaline; Adr, adrenaline; OA, octopamine.

Assay [6] has as its target T1, AmphiAmR11. Briefly: cell-based. Format: cell-based. Conditions: for Concentrations coupling AmphiAmR11 to an increase in cAMP levels: after pertussis toxin; for Effect on forskolin-stimulated cAMP levels following pertussis toxin treatment: amines at 100 µM, 16 hours; for Effect on forskolin-stimulated cAMP levels following pertussis toxin treatment / Concentration dependence of increase in forskolin-stimulated cAMP levels following pertussis toxin: pertussis toxin 200 ng/mL; for Concentration dependence of increase in forskolin-stimulated cAMP levels following pertussis toxin: 16 h, up to 100 µM.

Another assay relates to human 5HT1A receptor. Particulars: cited from earlier work.
The next assay deals with D2-dopamine receptors. Also on record: method as in PMID 10531409, PMID 9572301. Particulars: cited from earlier work.
The test system of a further assay is D3-dopamine receptors. More on the design: method as in PMID 10531409, PMID 9572301. Particulars: cited from earlier work.
[7] abbreviates: 10 µM forskolin, 100 µM IBMX, 20 min, full concentration response curves, read-out: EC50 for decrease in forskolin-stimulated cAMP levels.

Where a name gives a salt, the structure may show the parent alone.

T1 sequence (A0PF35 entry or part of it): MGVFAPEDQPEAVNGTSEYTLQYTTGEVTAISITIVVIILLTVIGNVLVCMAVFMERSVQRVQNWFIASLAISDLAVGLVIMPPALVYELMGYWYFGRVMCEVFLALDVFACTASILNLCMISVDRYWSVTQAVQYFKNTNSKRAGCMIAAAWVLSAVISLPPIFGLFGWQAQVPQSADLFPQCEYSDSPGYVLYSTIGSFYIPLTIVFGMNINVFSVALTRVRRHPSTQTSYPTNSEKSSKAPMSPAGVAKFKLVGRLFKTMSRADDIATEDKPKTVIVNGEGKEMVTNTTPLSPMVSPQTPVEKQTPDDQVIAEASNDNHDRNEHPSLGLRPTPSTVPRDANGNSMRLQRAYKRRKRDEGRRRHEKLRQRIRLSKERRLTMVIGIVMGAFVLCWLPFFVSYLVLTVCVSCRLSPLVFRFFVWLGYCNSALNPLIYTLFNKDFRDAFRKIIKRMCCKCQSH

As to `CN1CCc2cc(Cl)c(O)cc2[C@@H](c2ccccc2)C1` [SCH23390, R(+)-7-chloro-8-hydroxy-3-methyl-1-phenyl-2,3,4,5-tetrahydro-^1H-3-benzazepine hydrochloride], the “Effect on dopamine-mediated signalling via DD2R” value in the assay with DD2R is “not to affect”. In addition, the “Effect on dopamine-mediated signalling via CeDOP2L” value in the assay with CeDOP2L was “not to affect”. Besides, the “Effect on dopamine-mediated signalling via CeDOP2S” value with CeDOP2S was “not to affect”. In addition, the “Block of tyramine-induced inhibition of forskolin-stimulated cAMP levels” value on AmphiAmR11 [1] (1 μM antagonist) was “no significant blocking effect”.

`CC(C)(C)[C@]1(O)CCN2C[C@H]3c4ccccc4CCc4cccc(c43)[C@@H]2C1` [butaclamol, (+)-butaclamol hydrochloride]: at AmphiAmR11 [2], the “Block of dopamine-induced ERK1/2 activation” value was “no significant effect”. Further, the “Antagonist effect at invertebrate D2-like receptor DD2R at high concentration” value in the assay on DD2R is on record as “only a partial effect”. In addition, the “Antagonist effect at invertebrate D2-like receptor CeDOP2L at high concentration” value with CeDOP2L is listed as “only a partial effect”. In addition, the “Effect of antagonist on ERK1/2 phosphorylation in the absence of dopamine” value (“Effect of antagonist” below) on AmphiAmR11 [3] is listed as “did not exhibit any agonistic properties”. Also, the “Antagonist effect at invertebrate D2-like receptor CeDOP2S at high concentration” value in the assay on CeDOP2S is listed as “only a partial effect”. On AmphiAmR11 [1] (1 μM antagonist), the “Block of tyramine-induced inhibition of forskolin-stimulated cAMP levels” value is “no significant blocking effect”.

For the compound `CN(C)CCCN1c2ccccc2Sc2ccc(Cl)cc21` [chlorpromazine], in the assay on DD2R, the “Effect on dopamine-mediated signalling via DD2R” value is reported as “not to affect”. Moreover, the “Effect on dopamine-mediated signalling via CeDOP2L” value with CeDOP2L was “not to affect”. The “Effect on dopamine-mediated signalling via CeDOP2S” value with CeDOP2S was “not to affect”.

With `Cl.Cl.OCCN1CCN(CC/C=C2/c3ccccc3Sc3ccc(C(F)(F)F)cc32)CC1` [flupenthixol, cis-(Z)-flupenthixol dihydrochloride], at AmphiAmR11 [2], the “Block of dopamine-induced ERK1/2 activation” value is listed as “no significant effect”. In addition, the “Antagonist effect at invertebrate D2-like receptor DD2R at high concentration” value in the assay on DD2R is reported as “only a partial effect”. For the same compound, the “Antagonist effect at invertebrate D2-like receptor CeDOP2L at high concentration” value in the assay with CeDOP2L is on record as “only a partial effect”. Moreover, the “Effect of antagonist” value at AmphiAmR11 [3] is “did not exhibit any agonistic properties”. In the assay on CeDOP2S, the “Antagonist effect at invertebrate D2-like receptor CeDOP2S at high concentration” value was “only a partial effect”. In addition, the “Block of tyramine-induced inhibition of forskolin-stimulated cAMP levels” value on AmphiAmR11 [1] (1 μM antagonist) is reported as “no significant blocking effect”.

In the case of `c1ccc2c(CC3=NCCN3)cccc2c1` [naphazoline, naphazoline hydrochloride], the “Effect on forskolin-stimulated cAMP levels at 1 µM” value on AmphiAmR11 [4] (1 µM agonist, 10 µM forskolin, 100 µM IBMX, 20 min) is “most effective agonists”. In addition, on AmphiAmR11 [4] (setting [7]), the EC50 (as a rule, the concentration giving half of the maximal effect) was determined as 0.287 nM. The “Agonist activity at AmphiAmR4” value in the assay on AmphiAmR4 was “most potent agonist”. The “Effect on ERK1/2 phosphorylation at 100 nM” value on AmphiAmR11 [3] (100 nM synthetic agonist, 5 min) was “increased the ERK1/2 phosphorylation level above that of the basal condition”. In addition, the “Effect on ERK1/2 phosphorylation at 1 µM” value at AmphiAmR11 [3] (1 µM synthetic agonist, 5 min, dopamine as reference) was “most effective of the synthetic agonists”.

Turning to `NC[C@H](O)c1ccc(O)c(O)c1` [noradrenaline, (-)-noradrenaline hydrochloride], the “Calcium response at 10 nM” value on AmphiAmR11 [5] (10 nM biogenic amine, compared with dopamine) is given as “less effective than dopamine”. A half-maximal response at AmphiAmR11 [4] (EC50) required 844 nM. In addition, the “Effect on ERK1/2 phosphorylation at 10 nM” value at AmphiAmR11 [3] (10 nM biogenic amine, 5 min) is “not able to increase”. Also, at AmphiAmR11 [6], the “Concentrations coupling AmphiAmR11 to an increase in cAMP levels” value is given as “above 1 µM”, the “Effect on forskolin-stimulated cAMP levels following pertussis toxin treatment” value is given as “increase in forskolin-stimulated cAMP levels” and the “Concentration dependence of increase in forskolin-stimulated cAMP levels following pertussis toxin” value is on record as “concentration-dependent effects”.

For the compound `COC(=O)[C@H]1[C@H]2C[C@H]3c4[nH]c5ccccc5c4CCN3C[C@H]2CC[C@@H]1O` [rauwolscine, rauwolscine hydrochloride], on AmphiAmR11 [4], the EC50 amounted to 121 nM, the “Agonist type at AmphiAmR11 (full or partial)” value is listed as “full agonists” and the “Inhibition of forskolin-stimulated cAMP levels (maximal)” value is “greater than 90%”. Moreover, the “Decrease of forskolin-stimulated cAMP levels by antagonist in the absence of agonist” value at AmphiAmR11 [4] (10 µM forskolin) is given as “could inhibit forskolin-stimulated cAMP levels”. The “Block of dopamine-induced ERK1/2 activation” value on AmphiAmR11 [2] is “no significant effect”. For the same compound, the “Effect of antagonist” value on AmphiAmR11 [3] is on record as “increase in ERK1/2 phosphorylation”. The “Agonist activity at human 5HT1A receptor” value in the assay with human 5HT1A receptor is on record as “partial agonist activity”. The “Block of tyramine-induced inhibition of forskolin-stimulated cAMP levels” value on AmphiAmR11 [1] (1 μM antagonist) is “no significant blocking effect”.

As for `O=C(CCCN1CCC2(CC1)C(=O)NCN2c1ccccc1)c1ccc(F)cc1` [spiperone, spiperone hydrochloride], the “Block of dopamine-induced ERK1/2 activation” value at AmphiAmR11 [2] is “no significant effect”. Also, the “Effect on dopamine-mediated signalling via DD2R” value in the assay with DD2R was “little or no effect”. Also, the “Effect on dopamine-mediated signalling via CeDOP2L” value in the assay on CeDOP2L is “little or no effect”. On AmphiAmR11 [3], the “Effect of antagonist” value was “did not exhibit any agonistic properties”. The “Effect on dopamine-mediated signalling via CeDOP2S” value in the assay with CeDOP2S is “little or no effect”.

As for `NCCc1ccc(O)cc1` [tyramine, tyramine hydrochloride], the EC50 at AmphiAmR11 [5] (3 minutes exposure, read-out: EC50 for calcium mobilisation (percentage of responding cells per field of view)) was determined as 767 nM. Also, the EC50 on AmphiAmR11 [4] (setting [7]) stood at 7.47 nM. Also, a half-maximal effect on AmphiAmR11 [3] (EC50) was put at 18.2 nM. Moreover, on AmphiAmR11 [3] (1 µM tyramine (level by 30 minutes) or 30 nM dopamine), the “Duration of ERK1/2 phosphorylation response after the peak” value is reported as “approximately half that of its peak at 5 minutes”. Further, the “Time of peak ERK1/2 phosphorylation” value on AmphiAmR11 [3] (1 µM tyramine or 30 nM dopamine) is “approximately 5 minutes”. On AmphiAmR11 [6], the “Concentrations coupling AmphiAmR11 to an increase in cAMP levels” value was “above 1 µM”, the “Effect on forskolin-stimulated cAMP levels following pertussis toxin treatment” value was “increase in forskolin-stimulated cAMP levels” and the “Concentration dependence of increase in forskolin-stimulated cAMP levels following pertussis toxin” value was “concentration-dependent effects”.

On to `COC[C@H]1OC(=O)c2coc3c2[C@@]1(C)C1=C(C3=O)[C@@H]2CCC(=O)[C@@]2(C)C[C@H]1OC(C)=O` [wortmannin], for which the “Effect on D2-mediated ERK1/2 activation in CHO cells” value with D2-dopamine receptors is “partially reduce”. The “Effect on D3-mediated ERK1/2 activation in CHO cells” value with D3-dopamine receptors is given as “partially reduce”.

On to `COC(=O)[C@@H]1[C@H]2C[C@H]3c4[nH]c5ccccc5c4CCN3C[C@@H]2CC[C@@H]1O` [yohimbine, yohimbine hydrochloride], for which, at AmphiAmR11 [4], the midpoint of the response, the EC50, lay at 17.1 nM; the “Agonist type at AmphiAmR11 (full or partial)” value is reported as “full agonists”; the “Inhibition of forskolin-stimulated cAMP levels (maximal)” value was “greater than 90%”. The “Decrease of forskolin-stimulated cAMP levels by antagonist in the absence of agonist” value at AmphiAmR11 [4] (10 µM forskolin) was “could inhibit forskolin-stimulated cAMP levels”. The “Block of dopamine-induced ERK1/2 activation” value at AmphiAmR11 [2] was “no significant effect”. The “Effect of antagonist” value at AmphiAmR11 [3] is given as “increase in ERK1/2 phosphorylation”. Further, the “Agonist activity at human 5HT1A receptor” value with human 5HT1A receptor was “partial agonist activity”. On AmphiAmR11 [1] (1 μM antagonist), the “Apparent enhancement of tyramine-induced inhibition of forskolin-stimulated cAMP levels” value was “appeared to enhance” and the “Block of tyramine-induced inhibition of forskolin-stimulated cAMP levels” value is recorded as “no significant blocking effect”. On AmphiAmR11 [1] (varying concentrations of antagonist), the “Blocking effect on tyramine-induced response at reduced antagonist concentrations” value is given as “no blocking effect”.

The values are drawn from paper PMC3827198, “Characterisation of AmphiAmR11, an Amphioxus (Branchiostoma floridae) D2-Dopamine-Like G Protein-Coupled Receptor” (PLoS ONE, 2013).
